Data reported in paper PMC12155096 (International Journal of Molecular Sciences, 2025).
Structures can show the parent of a compound that is named as a salt. Where two headings read alike, the source gives them in different places.

Legend:
human CYP2C9 [1] = target: T1, human CYP2C9 (Homo sapiens, UniProt P11712)
CYP3A4 = CYP3A4 (Homo sapiens, UniProt P08684)
[2] = target: Photinus pyralis (firefly) luciferase (Photinus pyralis, UniProt P08659); test: biochemical; format: biochemical
human CYP1A2 [3] = target: T2, human CYP1A2 (Homo sapiens, UniProt P05177); test: biochemical
T2 sequence (P05177 1-516): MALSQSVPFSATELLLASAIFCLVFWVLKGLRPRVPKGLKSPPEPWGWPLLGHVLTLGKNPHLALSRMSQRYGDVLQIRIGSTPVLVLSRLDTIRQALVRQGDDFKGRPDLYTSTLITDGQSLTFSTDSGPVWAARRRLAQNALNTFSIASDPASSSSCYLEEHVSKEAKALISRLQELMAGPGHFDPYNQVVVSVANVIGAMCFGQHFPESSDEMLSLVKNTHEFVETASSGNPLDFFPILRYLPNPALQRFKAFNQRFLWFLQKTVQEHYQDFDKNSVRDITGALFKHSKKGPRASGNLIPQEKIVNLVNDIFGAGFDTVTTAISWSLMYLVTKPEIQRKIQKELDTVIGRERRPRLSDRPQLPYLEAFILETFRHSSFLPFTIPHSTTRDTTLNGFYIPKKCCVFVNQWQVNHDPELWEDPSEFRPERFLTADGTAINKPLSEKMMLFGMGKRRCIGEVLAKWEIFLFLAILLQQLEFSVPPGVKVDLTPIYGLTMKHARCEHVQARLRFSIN

human CYP1A2 [4] = target: T2, human CYP1A2
human CYP2C19 [5] = target: T3, human CYP2C19 (Homo sapiens, UniProt P33261)
T3 sequence (P33261 whole entry): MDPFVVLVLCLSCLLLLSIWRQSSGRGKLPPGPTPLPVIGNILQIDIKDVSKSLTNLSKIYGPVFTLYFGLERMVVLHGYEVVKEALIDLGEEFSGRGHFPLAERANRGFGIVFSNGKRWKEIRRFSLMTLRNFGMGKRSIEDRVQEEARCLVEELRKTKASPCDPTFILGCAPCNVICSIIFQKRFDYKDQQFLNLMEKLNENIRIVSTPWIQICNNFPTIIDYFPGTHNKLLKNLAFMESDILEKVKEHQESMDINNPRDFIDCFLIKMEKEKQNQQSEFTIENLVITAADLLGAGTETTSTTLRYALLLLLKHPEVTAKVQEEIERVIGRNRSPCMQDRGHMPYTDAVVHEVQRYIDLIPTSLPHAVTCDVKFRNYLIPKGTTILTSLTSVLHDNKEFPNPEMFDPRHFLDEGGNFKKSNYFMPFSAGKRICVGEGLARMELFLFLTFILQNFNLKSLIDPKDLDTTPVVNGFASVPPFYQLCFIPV

human CYP2D6 [6] = target: T4, human CYP2D6 (Homo sapiens, UniProt P10635)
T4 sequence (P10635 whole entry): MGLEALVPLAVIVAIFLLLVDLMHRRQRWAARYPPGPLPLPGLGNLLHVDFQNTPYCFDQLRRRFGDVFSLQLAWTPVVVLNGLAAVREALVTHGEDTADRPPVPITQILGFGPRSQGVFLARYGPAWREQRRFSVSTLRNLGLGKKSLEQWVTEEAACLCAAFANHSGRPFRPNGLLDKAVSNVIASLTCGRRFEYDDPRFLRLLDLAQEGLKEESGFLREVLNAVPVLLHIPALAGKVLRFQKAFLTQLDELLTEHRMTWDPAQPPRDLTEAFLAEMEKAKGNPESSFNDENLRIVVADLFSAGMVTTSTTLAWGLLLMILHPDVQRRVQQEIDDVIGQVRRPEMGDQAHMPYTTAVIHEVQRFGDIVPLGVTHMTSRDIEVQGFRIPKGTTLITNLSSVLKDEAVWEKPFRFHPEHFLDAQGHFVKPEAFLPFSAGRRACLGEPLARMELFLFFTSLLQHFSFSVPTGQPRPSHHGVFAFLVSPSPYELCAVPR

human CYP2C19 [7] = target: T3, human CYP2C19; test: biochemical
human CYP2C9 [8] = target: T1, human CYP2C9; test: biochemical
human CYP2D6 [9] = target: T4, human CYP2D6; test: biochemical; conditions: for IC50: CYP2D6 IC50 (half-maximal inhibitory concentration)
[10] = CYP1A2 IC50 (half-maximal inhibitory concentration)
[11] = CYP2C19 IC50 (half-maximal inhibitory concentration)
[12] = CYP2C9 IC50 (half-maximal inhibitory concentration)

Chain of CYP3A4 (P08684 whole entry): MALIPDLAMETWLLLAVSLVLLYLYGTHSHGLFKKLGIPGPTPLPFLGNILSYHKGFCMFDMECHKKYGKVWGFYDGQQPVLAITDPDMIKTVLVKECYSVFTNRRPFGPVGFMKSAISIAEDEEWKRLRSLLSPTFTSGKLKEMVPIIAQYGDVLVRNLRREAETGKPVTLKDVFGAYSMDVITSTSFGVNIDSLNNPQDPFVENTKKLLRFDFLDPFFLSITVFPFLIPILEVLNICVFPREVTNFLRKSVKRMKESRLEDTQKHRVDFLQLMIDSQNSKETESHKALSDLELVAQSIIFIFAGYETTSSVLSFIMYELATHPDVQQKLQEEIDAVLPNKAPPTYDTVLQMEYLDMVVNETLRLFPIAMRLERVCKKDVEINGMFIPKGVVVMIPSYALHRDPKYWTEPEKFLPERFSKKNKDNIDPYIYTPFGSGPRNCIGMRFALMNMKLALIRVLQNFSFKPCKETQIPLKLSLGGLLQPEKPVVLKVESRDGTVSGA
Chain of Photinus pyralis (firefly) luciferase (P08659 whole entry): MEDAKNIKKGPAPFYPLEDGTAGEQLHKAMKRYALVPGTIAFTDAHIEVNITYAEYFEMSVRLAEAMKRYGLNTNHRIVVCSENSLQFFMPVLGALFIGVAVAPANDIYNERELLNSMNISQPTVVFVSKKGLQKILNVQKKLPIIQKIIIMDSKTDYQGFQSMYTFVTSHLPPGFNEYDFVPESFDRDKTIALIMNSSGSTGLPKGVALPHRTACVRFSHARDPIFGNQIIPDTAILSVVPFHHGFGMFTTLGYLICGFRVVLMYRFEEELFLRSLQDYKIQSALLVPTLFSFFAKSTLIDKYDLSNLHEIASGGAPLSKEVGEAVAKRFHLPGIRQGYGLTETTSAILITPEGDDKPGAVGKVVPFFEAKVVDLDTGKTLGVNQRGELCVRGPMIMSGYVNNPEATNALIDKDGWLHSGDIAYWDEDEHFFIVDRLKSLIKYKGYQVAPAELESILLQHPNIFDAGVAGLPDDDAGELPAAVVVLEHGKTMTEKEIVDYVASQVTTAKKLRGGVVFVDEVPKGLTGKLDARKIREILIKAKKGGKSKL
T1 sequence (P11712 whole entry): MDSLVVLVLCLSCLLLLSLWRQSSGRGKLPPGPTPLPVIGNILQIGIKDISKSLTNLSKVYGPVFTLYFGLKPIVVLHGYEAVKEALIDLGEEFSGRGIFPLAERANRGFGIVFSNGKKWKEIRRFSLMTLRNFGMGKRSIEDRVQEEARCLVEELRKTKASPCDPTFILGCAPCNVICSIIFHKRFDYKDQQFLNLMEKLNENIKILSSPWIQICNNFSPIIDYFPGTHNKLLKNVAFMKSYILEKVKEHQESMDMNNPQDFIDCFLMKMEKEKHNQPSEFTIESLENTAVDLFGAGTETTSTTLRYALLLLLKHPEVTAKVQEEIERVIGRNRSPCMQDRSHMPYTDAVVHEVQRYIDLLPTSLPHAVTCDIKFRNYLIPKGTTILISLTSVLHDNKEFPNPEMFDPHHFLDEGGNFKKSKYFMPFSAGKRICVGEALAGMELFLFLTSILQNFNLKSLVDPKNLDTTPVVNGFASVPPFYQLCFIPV

| Molecule | CYP3A4 IC50 (half-maximal inhibitory concentration) (CYP3A4) | Luciferase IC50 (half-maximal inhibitory concentration) [2] | IC50 (human CYP1A2 [3]; [10]) | CYP1A2 Efficacy (in parenthesis) (human CYP1A2 [4]; human) | CYP2D6 IC50 (half-maximal inhibitory concentration) (human CYP2D6 [6]) | CYP3A4 IC50 (CYP3A4) | Luciferase IC50 [2] | IC50 (human CYP1A2 [3]; CYP1A2 IC50) | CYP2D6 IC50 (human CYP2D6 [6]) | other results |
| --- | --- | --- | --- | --- | --- | --- | --- | --- | --- | --- |
| Nc1c(Br)cc(Br)c2c1C(=O)c1ccccc1C2=O [1-Amino-2,4-dibromoanthraquinone] | Inactive | Inactive | 0.14 µM | 0.14 ± 0.03 (-99 ± 12) % | Inactive |  |  |  |  | CYP2C9 IC50 (half-maximal inhibitory concentration) (human CYP2C9 [1]): Inactive; CYP2C19 IC50 (half-maximal inhibitory concentration) (human CYP2C19 [5]): Inactive |
| O=C1c2ccccc2C(=O)c2cc(Cl)ccc21 [2-Chloroanthraquinone] | Inactive | Inactive |  |  | Inactive |  |  |  |  | CYP2C9 IC50 (half-maximal inhibitory concentration) (human CYP2C9 [1]): Inactive; IC50 (human CYP1A2 [3]): 0.11 ± 0.03 µM; CYP2C19 IC50 (half-maximal inhibitory concentration) (human CYP2C19 [5]): Inactive |
| Brc1c2ccccc2c(Br)c2ccccc12 [9,10-Dibromoanthracene] | Inactive | Inactive | 0.41 µM | 0.41 ± 0.27 (-85 ± 6) % | Inactive |  |  |  |  | CYP2C9 IC50 (half-maximal inhibitory concentration) (human CYP2C9 [1]): Inactive; CYP2C19 IC50 (half-maximal inhibitory concentration) (human CYP2C19 [5]): Inactive |
| Brc1cc2ccccc2c2ccccc12 [9-Bromophenanthrene] | Inactive | Inactive | 0.32 µM | 0.32 ± 0.09 (-101 ± 1) % | Inactive |  |  |  |  | CYP2C9 Efficacy (in parenthesis) (human CYP2C9 [1]; human): 56.84 ± 0 (-53 ± 6) %; CYP2C19 Efficacy (in parenthesis) (human CYP2C19 [5]; human): 29.42 ± 9.47 (-107 ± 13) %; IC50 (human CYP2C19 [7]; [11]): 29.4 µM; IC50 (human CYP2C9 [8]; [12]): 56.8 µM |
| N#Cc1c2ccccc2cc2ccccc12 [9-Cyanoanthracene] |  |  |  |  |  | Inactive | Inactive | 0.22 µM | Inactive | IC50 (human CYP2C19 [7]; CYP2C19 IC50): 16 µM; IC50 (human CYP2C9 [8]; CYP2C9 IC50): 6.16 µM |
| c1ccc2cc3ccccc3cc2c1 [Anthracene] |  |  |  |  |  | Inactive | Inactive | 0.5 µM | Inactive | CYP2C9 IC50 (human CYP2C9 [1]): Inactive; IC50 (human CYP2C19 [7]; CYP2C19 IC50): 67 µM |
| O=C1c2ccccc2C(=O)c2ccccc21 [Anthraquinone] | Inactive | Inactive | 0.23 µM | 0.23 ± 0.06 (-96 ± 3) % | Inactive |  |  |  |  | CYP2C9 IC50 (half-maximal inhibitory concentration) (human CYP2C9 [1]): Inactive; CYP2C19 IC50 (half-maximal inhibitory concentration) (human CYP2C19 [5]): Inactive |
| c1ccc2c(c1)cc1ccc3cccc4ccc2c1c34 [Benzo(a)pyrene] |  |  |  |  |  | Inactive |  | 0.3 µM | Inactive | IC50 [2]: 16.4 µM; CYP2C19 IC50 (human CYP2C19 [5]): Inactive; IC50 (human CYP2C9 [8]; CYP2C9 IC50): 23.4 µM |
| c1cc2ccc3ccc4ccc5cccc6c(c1)c2c3c4c56 [Benzo(g,h,i)perylene] |  |  |  |  |  | Inactive | Inactive | 0.16 µM | Inactive | CYP2C9 IC50 (human CYP2C9 [1]): Inactive; CYP2C19 IC50 (human CYP2C19 [5]): Inactive |
| c1ccc2cc3c(cc2c1)-c1cccc2cccc-3c12 [Benzo(k)fluoranthene] |  |  |  |  |  | Inactive | Inactive | 0.17 µM | Inactive | CYP2C9 IC50 (human CYP2C9 [1]): Inactive; CYP2C19 IC50 (human CYP2C19 [5]): Inactive |
| CC(C)(Cc1c[nH]c2ccccc12)NCC(O)COc1ccccc1C#N (centres unmarked) [Bucindolol] | Inactive | Inactive |  |  |  |  |  |  |  | CYP2C9 IC50 (half-maximal inhibitory concentration) (human CYP2C9 [1]): Inactive; IC50 (human CYP1A2 [3]): 29.2 ± 2.38 µM; CYP2C19 IC50 (half-maximal inhibitory concentration) (human CYP2C19 [5]): Inactive |
| c1ccc2c(c1)ccc1c3ccccc3ccc21 [Chrysene] |  |  |  |  |  | Inactive | Inactive | 0.65 µM | Inactive | CYP2C9 IC50 (human CYP2C9 [1]): Inactive; CYP2C19 IC50 (human CYP2C19 [5]): Inactive |
| c1ccc2cc3c4ccccc4c4ccccc4c3cc2c1 [Dibenz[a,c]anthracene] |  |  |  |  |  | Inactive | Inactive | 0.21 µM | Inactive | CYP2C9 IC50 (human CYP2C9 [1]): Inactive; CYP2C19 IC50 (human CYP2C19 [5]): Inactive |
| OC(CN1CCC(Cc2ccc(F)cc2)CC1)c1ccc(Cl)cc1 (centres unmarked) [Eliprodil] |  |  |  |  |  |  |  |  |  | AC50 (human CYP2D6 [9]; CYP2D6 AC50 (half-maximal activity concentration)): 0.12 µM; IC50 (human CYP2D6 [9]): 0.12 µM |
| CCN(CC)CCN1C(=O)CN=C(c2ccccc2F)c2cc(Cl)ccc21 [Flurazepam] |  |  |  |  |  |  |  |  |  | IC50 (human CYP2D6 [9]): 15.6 µM |
| Brc1c(Br)c(Br)c(Br)c(Br)c1Br [Hexabromobenzene] | Inactive | Inactive | 0.09 µM | 0.09 ± 0.01 (-45 ± 9) % | Inactive |  |  |  |  | CYP2C9 IC50 (half-maximal inhibitory concentration) (human CYP2C9 [1]): Inactive; CYP2C19 IC50 (half-maximal inhibitory concentration) (human CYP2C19 [5]): Inactive |
| c1ccc2c(c1)-c1ccc3ccc4cccc5cc-2c1c3c45 [Indeno(1,2,3-cd)pyrene] | Inactive |  | 0.18 µM |  | Inactive |  |  |  |  | IC50 [2]: 12.9 µM; IC50 (human CYP2C19 [7]; [11]): 15.5 µM; IC50 (human CYP2C9 [8]; [12]): 5.5 µM |
| c1ccc2nc(N3CCNCC3)ccc2c1 [Quipazine maleate] |  |  |  |  |  | Inactive | Inactive | 0.96 µM | Inactive | CYP2C9 IC50 (human CYP2C9 [1]): Inactive; CYP2C19 IC50 (human CYP2C19 [5]): Inactive |
| CCN(CC)C(=O)SCc1ccc(Cl)cc1 [Thiobencarb] | Inactive |  | 15.9 µM | 15.89 ± 0 (-91 ± 6) % | Inactive |  |  |  |  | CYP2C9 Efficacy (in parenthesis) (human CYP2C9 [1]; human): 25.18 ± 0 (-91 ± 2) %; IC50 [2]: 38.5 µM; CYP2C19 Efficacy (in parenthesis) (human CYP2C19 [5]; human): 0.66 ± 0.12 (-124 ± 7) %; IC50 (human CYP2C19 [7]; [11]): 0.66 µM; IC50 (human CYP2C9 [8]; [12]): 25.2 µM |
| ClC(Cl)=C(c1ccc(Cl)cc1)c1ccc(Cl)cc1 [p,p'-DDE] | Inactive | Inactive | 3.65 µM | 3.65 ± 1.85 (-100 ± 2) % | Inactive |  |  |  |  | CYP2C9 Efficacy (in parenthesis) (human CYP2C9 [1]; human): 12.86 ± 6.41 (-84 ± 11) %; CYP2C19 Efficacy (in parenthesis) (human CYP2C19 [5]; human): 0.57 ± 0.14 (-135 ± 7) %; IC50 (human CYP2C19 [7]; [11]): 0.57 µM; IC50 (human CYP2C9 [8]; [12]): 12.9 µM |
| GW473178E methyl benzene sulphonic acid |  | Inactive |  |  |  |  |  |  |  | IC50 (human CYP2C9 [1]): 5.86 µM; IC50 (CYP3A4): 0.8 µM; CYP1A2 IC50 (half-maximal inhibitory concentration) (human CYP1A2 [4]): Inactive; IC50 (human CYP2C19 [5]): 46.9 µM; IC50 (human CYP2D6 [6]): 23.1 µM |
| Pentaerythritol allyl ether |  | Inactive |  |  | Inactive |  |  |  |  | IC50 (human CYP2C9 [1]): 5.98 µM; IC50 (CYP3A4): 13 µM; IC50 (human CYP1A2 [4]): 23.6 µM; IC50 (human CYP2C19 [5]): 0.83 µM |
| Trimethylolpropane ethoxylate triacrylate |  | Inactive |  |  |  |  |  |  |  | CYP2C9 Efficacy (in parenthesis) (human CYP2C9 [1]): 22.42 ± 6.63 (-90 ± 14) %; IC50 (human CYP2C9 [1]): 22.4 µM; CYP3A4 Efficacy (in parenthesis) (CYP3A4): 0.9 ± 0.43 (-82 ± 18) %; IC50 (CYP3A4): 0.9 µM; CYP1A2 Efficacy (in parenthesis) (human CYP1A2 [4]): 54.51 ± 3.69 (-43 ± 8) %; IC50 (human CYP1A2 [4]): 54.5 µM; CYP2C19 Efficacy (in parenthesis) (human CYP2C19 [5]): 20.46 ± 7.7 (-131 ± 32) %; IC50 (human CYP2C19 [5]): 20.5 µM; CYP2D6 Efficacy (in parenthesis) (human CYP2D6 [6]): 68.92 ± 8.79 (-43 ± 5) %; IC50 (human CYP2D6 [6]): 68.9 µM |
